Reference: ChEMBL document CHEMBL1136316, “Low molecular mass peptide dendrimers that express antimicrobial properties” (2003)
Converted amounts (≈) assume the structure as drawn.

Assays:
Escherichia coli = test: Antimicrobial activity against Escherichia coli NCTC 8196; assay type: functional
Staphylococcus aureus = test: Antimicrobial activity against Staphylococcus aureus NCTC 4163; assay type: functional

| Compound | MIC (Escherichia coli) [µM] | MIC (Staphylococcus aureus) [µM] |
| --- | --- | --- |
| NCCCC[C@@H](NC(=O)OCc1ccccc1)C(=O)NCCCC[C@@H](NC(=O)[C@@H](CCCCN)NC(=O)OCc1ccccc1)C(=O)NCC(N)=O | 375 (≈ 273 µg/mL) | 94 (≈ 68.3 µg/mL) |
| NCCCC[C@H](NC(=O)OCc1ccccc1)C(=O)N[C@@H](Cc1ccccc1)C(N)=O | 324 (≈ 138 µg/mL) | 151 (≈ 64.4 µg/mL) |
| NCCCC[C@@H](NC(=O)OCc1ccccc1)C(=O)NCCCC[C@@H](NC(=O)[C@@H](CCCCN)NC(=O)OCc1ccccc1)C(=O)N[C@H](Cc1ccc(O)cc1)C(N)=O | 165 (≈ 137 µg/mL) | 1330 (≈ 1110 µg/mL) |
| NC(=O)[C@@H](Cc1ccc(O)cc1)NC(=O)[C@@H](CCCCNC(=O)[C@H](N)CCCCNC(=O)OCc1ccccc1)NC(=O)[C@H](N)CCCCNC(=O)OCc1ccccc1 | 331 (≈ 276 µg/mL) | 331 (≈ 276 µg/mL) |
| NCCCC[C@@H](NC(=O)OCc1ccccc1)C(=O)NCCC[C@@H](NC(=O)[C@@H](CCCCN)NC(=O)OCc1ccccc1)C(=O)N[C@H](Cc1ccccc1)C(N)=O | 85 (≈ 68.3 µg/mL) | 85 (≈ 68.3 µg/mL) |
| NC(=O)[C@@H](Cc1ccccc1)NC(=O)[C@@H](CCCCNC(=O)[C@H](N)CCCCNC(=O)OCc1ccccc1Cl)NC(=O)[C@H](N)CCCCNC(=O)OCc1ccccc1Cl | 84 (≈ 74.4 µg/mL) | 16 (≈ 14.2 µg/mL) |
| COC(=O)[C@H](Cc1ccccc1)NC(=O)[C@@H](N)CCCCN | 590 (≈ 181 µg/mL) | 300 (≈ 92.2 µg/mL) |
| NC(=O)[C@@H](Cc1ccccc1)NC(=O)[C@@H](CCCCNC(=O)[C@@H](CCCCNC(=O)[C@@H](N)CCCN=C(N)N)NC(=O)[C@@H](N)CCCN=C(N)N)NC(=O)[C@@H](CCCCNC(=O)C(N)CCCN=C(N)N)NC(=O)[C@H](N)CCCN=C(N)N (stereo partly specified) | 75 (≈ 88 µg/mL) | 130 (≈ 153 µg/mL) |
| N=C(N)NCCC[C@@H](NC(=O)OCc1ccccc1)C(=O)NCCCC[C@H](NC(=O)[C@@H](CCCN=C(N)N)NC(=O)OCc1ccccc1)C(=O)N[C@H](CCCCNC(=O)C(CCCCNC(=O)[C@H](CCCN=C(N)N)NC(=O)OCc1ccccc1)NC(=O)[C@H](CCCN=C(N)N)NC(=O)OCc1ccccc1)C(=O)N[C@H](Cc1ccccc1)C(N)=O (stereo partly specified) | 20 (≈ 34.2 µg/mL) | 44 (≈ 75.2 µg/mL) |
| NCCCC[C@@H](NC(=O)OCc1ccccc1)C(=O)NCCCC[C@@H](NC(=O)[C@@H](CCCCN)NC(=O)OCc1ccccc1)C(=O)N[C@H](Cc1ccccc1)C(N)=O | 64 (≈ 52.3 µg/mL) | 39 (≈ 31.9 µg/mL) |
| C[C@H](N)C(=O)NCCCC[C@H](NC(=O)[C@H](C)N)C(=O)NCCCC[C@H](NC(=O)[C@H](CCCCNC(=O)[C@H](C)N)NC(=O)[C@H](C)N)C(=O)N[C@@H](Cc1ccccc1)C(N)=O (stereo in doubt) | 181 (≈ 151 µg/mL) | 181 (≈ 151 µg/mL) |
| N=C(N)NCCCC(NC(=O)OCc1ccccc1)C(=O)NCCCC[C@@H](NC(=O)C(CCCN=C(N)N)NC(=O)OCc1ccccc1)C(=O)N[C@H](CCCCNC(=O)[C@@H](CCCCNC(=O)C(CCCN=C(N)N)NC(=O)OCc1ccccc1)NC(=O)C(CCCN=C(N)N)NC(=O)OCc1ccccc1)C(=O)N[C@H](Cc1ccccc1)C(N)=O (stereo in doubt) | 44 (≈ 75.2 µg/mL) | 88 (≈ 150 µg/mL) |
| N=C(N)NCCCC(NC(=O)OCc1ccccc1)C(=O)NCCCCC(NC(=O)C(CCCN=C(N)N)NC(=O)OCc1ccccc1)C(=O)NCCCCC(NC(=O)C(CCCCNC(=O)C(CCCN=C(N)N)NC(=O)OCc1ccccc1)NC(=O)C(CCCN=C(N)N)NC(=O)OCc1ccccc1)C(=O)N[C@H](Cc1ccccc1)C(N)=O (stereo in doubt) | 20 (≈ 34.2 µg/mL) | 44 (≈ 75.2 µg/mL) |
